Assay results reported in ChEMBL document CHEMBL5321295, “Targeted Degradation of Alpha-Synuclein by Autophagosome-Anchoring Chimera Peptides” (J Med Chem, 2023).
Activity calls are given as the source filed them. The rule behind the calls is not given here. Residues, ends and D or L forms follow the SMILES beside them. *: point of attachment. RhodamineB = CCN(CC)c1ccc2c(-c3ccccc3C(=O)*)c3ccc(=[N+](CC)CC)cc-3oc2c1

How the values were obtained:
[1] = Drug uptake in wild-type HEK293T cells assessed as drug penetration upto 50 uM incubated for 2 hrs by confocal laser scanning microscopy; type: ADME, cell-based; settings: human, hek-293t
[2] = Drug uptake in wild-type HEK293T cells assessed as drug penetration upto 100 uM incubated for 2 hrs by flow cytometry; type: ADME, cell-based; settings: human, hek-293t
[3] = test system: SH-SY5Y; assay: Cytotoxicity against wild-type human SH-SY5Y cells assessed as cell viability upto 200 uM incubated for 24 hrs by CCK8 assay; type: functional, cell-based
[4] = biological target: T1, Microtubule-associated protein 1 light chain 3 beta (Homo sapiens, UniProt Q9GZQ8); assay: Binding affinity to biotinylated recombinant LC3B (unknown origin) assessed as dissociation constant by BLI assay
[5] = test system: HEK-293T; assay: Cytotoxicity against wild-type HEK293T cells assessed as cell viability upto 200 uM incubated for 24 hrs by CCK8 assay; type: toxicity, cell-based; settings: human
[6] = biological target: T2, Alpha-synuclein (Homo sapiens, UniProt P37840); assay: Binding affinity to biotinylated recombinant alpha-synuclein (unknown origin) assessed as dissociation constant by BLI assay
[7] = Chemical stability of compound in cell culture medium at 50 uM measured for 24 hrs by HPLC analysis; type: physicochemical
[8] = biological target: T2, Alpha-synuclein; assay: Induction of alpha-synuclein (unknown origin) degradation overexpressed in HEK293T cells infected with adenovirus expressing mCherry-EGFP-LC3B incubated for 24 hrs by immunoblot analysis; type: cell-based; settings: for Activity: dose <= 200.0 µM
[9] = biological target: T2, Alpha-synuclein; assay: Induction of alpha-synuclein (unknown origin) degradation overexpressed in HEK293T cells at 50 to 100 uM incubated for 24 hrs by immunoblot analysis; type: cell-based; settings: dose 50-100 µM
[10] = Drug localization in HEK293T cells assessed as colocalization of lysosomes at 50 uM incubated for 2 hrs by LyTG staining based confocal laser scanning microscopy; type: ADME, cell-based; settings: human, hek-293t
[11] = Drug uptake in wild-type HEK293T cells assessed as drug penetration at 50 uM incubated upto 4 hrs by flow cytometry; type: ADME, cell-based; settings: human, hek-293t
[12] = biological target: T2, Alpha-synuclein; assay: Induction of EGFP-fused alpha-synuclein (unknown origin) degradation overexpressed in HEK293T cells at 50 uM incubated for 2 hrs by confocal laser scanning microscopy; type: cell-based
[13] = biological target: T1, Microtubule-associated protein 1 light chain 3 beta; assay: Binding affinity to EGFP-fused LC3B (unknown origin) overexpressed in HEK293T cells at 50 uM incubated for 2 hrs by confocal laser scanning microscopy; type: cell-based

| Structure (SMILES) | Activity [3] | Activity [5] | Stability [7] | DC50 [8] [µM] | Activity [8] | further results |
| --- | --- | --- | --- | --- | --- | --- |
| CCN(CC)c1ccc2c(-c3ccccc3C(=O)NCC(=O)N[C@H](C(=O)N[C@@H](CC(C)C)C(=O)N[C@@H](Cc3ccc(O)cc3)C(=O)N[C@H](C(=O)NCC(=O)N[C@@H](CO)C(=O)N[C@@H](CCCCN)C(=O)N[C@H](C(=O)N[C@@H](CCCNC(=N)N)C(=O)NCC(=O)N[C@@H](CO)C(=O)NCC(=O)N[C@@H](CO)C(=O)N[C@@H](CO)C(=O)NCC(=O)NCC(=O)N[C@@H](CC(=O)O)C(=O)N[C@@H](CC(=O)O)C(=O)N[C@@H](CC(=O)O)C(=O)N[C@@H](Cc3c[nH]c4ccccc34)C(=O)N[C@H](C(=O)N[C@@H](Cc3c[nH]cn3)C(=O)N[C@@H](CC(C)C)C(=O)N[C@@H](CO)C(=O)N[C@@H](CO)C(=O)N[C@@H](CCCNC(=N)N)C(=O)N[C@@H](CCCNC(=N)N)C(=O)N[C@@H](CCCNC(=N)N)C(=O)N[C@@H](CCCNC(=N)N)C(=O)N[C@@H](CCCNC(=N)N)C(=O)N[C@@H](CCCNC(=N)N)C(=O)N[C@@H](CCCNC(=N)N)C(=O)O)[C@@H](C)O)[C@@H](C)O)C(C)C)C(C)C)c3ccc(=[N+](CC)CC)cc-3oc2c1.[Cl-] (RhodamineB-GVLYVGSKTRGSGSSGGDDDWTHLSSRRRRRRR-OH) |  |  |  |  |  | Drug uptake [1]: Active; Drug uptake [2]: Active |
| CC[C@H](C)[C@H](NC(=O)[C@H](Cc1ccc(O)cc1)NC(=O)[C@H](CC(=O)O)NC(=O)[C@H](CCC(=O)O)NC(=O)[C@H](CO)NC(=O)[C@H](CO)NC(=O)[C@H](C)NC(=O)[C@H](CO)NC(=O)[C@H](CO)NC(=O)CNC(=O)[C@H](CO)NC(=O)CNC(=O)[C@H](CCCNC(=N)N)NC(=O)[C@@H](NC(=O)[C@H](CCCCN)NC(=O)[C@H](CO)NC(=O)CNC(=O)[C@@H](NC(=O)[C@H](Cc1ccc(O)cc1)NC(=O)[C@H](CC(C)C)NC(=O)[C@@H](NC(=O)CN)C(C)C)C(C)C)[C@@H](C)O)C(=O)N[C@H](C(=O)N[C@H](C(=O)N[C@@H](CC(C)C)C(=O)N1CCC[C@H]1C(=O)N[C@@H](Cc1ccc(O)cc1)C(=O)NCC(=O)N[C@@H](CCCNC(=N)N)C(=O)N[C@@H](CCCCN)C(=O)N[C@@H](CCCCN)C(=O)N[C@@H](CCCNC(=N)N)C(=O)N[C@@H](CCCNC(=N)N)C(=O)N[C@@H](CCC(N)=O)C(=O)N[C@@H](CCCNC(=N)N)C(=O)N[C@@H](CCCNC(=N)N)C(=O)N[C@@H](CCCNC(=N)N)C(=O)O)[C@@H](C)CC)[C@@H](C)CC (H-GVLYVGSKTRGSGSSASSEDYIIILPYGRKKRRQRRR-OH) | inactive | Non-Toxic | Stable | 73.8 | Dose-Dependent Effect | Kd [4]: 15.2 µM; Kd [6]: 25.3 µM |
| CC(C)C[C@H](NC(=O)[C@@H](NC(=O)CN)C(C)C)C(=O)N[C@@H](Cc1ccc(O)cc1)C(=O)N[C@H](C(=O)NCC(=O)N[C@@H](CO)C(=O)N[C@@H](CCCCN)C(=O)N[C@H](C(=O)N[C@@H](CCCNC(=N)N)C(=O)NCC(=O)N[C@@H](CO)C(=O)NCC(=O)N[C@@H](CO)C(=O)N[C@@H](CO)C(=O)NCC(=O)NCC(=O)N[C@@H](CC(=O)O)C(=O)N[C@@H](CC(=O)O)C(=O)N[C@@H](CC(=O)O)C(=O)N[C@@H](Cc1c[nH]c2ccccc12)C(=O)N[C@H](C(=O)N[C@@H](Cc1c[nH]cn1)C(=O)N[C@H](C(=O)N[C@@H](CO)C(=O)N[C@@H](CO)C(=O)N[C@@H](Cc1ccc(O)cc1)C(=O)NCC(=O)N[C@@H](CCCNC(=N)N)C(=O)N[C@@H](CCCCN)C(=O)N[C@@H](CCCCN)C(=O)N[C@@H](CCCNC(=N)N)C(=O)N[C@@H](CCCNC(=N)N)C(=O)N[C@@H](CCC(N)=O)C(=O)N[C@@H](CCCNC(=N)N)C(=O)N[C@@H](CCCNC(=N)N)C(=O)N[C@@H](CCCNC(=N)N)C(=O)O)C(C)C)[C@@H](C)O)[C@@H](C)O)C(C)C (H-GVLYVGSKTRGSGSSGGDDDWTHVSSYGRKKRRQRRR-OH) |  |  |  |  |  | Activity [9]: inactive |
| CCN(CC)c1ccc2c(-c3ccccc3C(=O)NCC(=O)N[C@H](C(=O)N[C@@H](CC(C)C)C(=O)N[C@@H](Cc3ccc(O)cc3)C(=O)N[C@H](C(=O)NCC(=O)N[C@@H](CO)C(=O)N[C@@H](CCCCN)C(=O)N[C@H](C(=O)N[C@@H](CCCNC(=N)N)C(=O)NCC(=O)N[C@@H](CO)C(=O)NCC(=O)N[C@@H](CO)C(=O)N[C@@H](CO)C(=O)NCC(=O)NCC(=O)N[C@@H](CC(=O)O)C(=O)N[C@@H](CC(=O)O)C(=O)N[C@@H](CC(=O)O)C(=O)N[C@@H](Cc3c[nH]c4ccccc34)C(=O)N[C@H](C(=O)N[C@@H](Cc3c[nH]cn3)C(=O)N[C@@H](CC(C)C)C(=O)N[C@@H](CO)C(=O)N[C@@H](CO)C(=O)N[C@@H](Cc3ccc(O)cc3)C(=O)NCC(=O)N[C@@H](CCCNC(=N)N)C(=O)N[C@@H](CCCCN)C(=O)N[C@@H](CCCCN)C(=O)N[C@@H](CCCNC(=N)N)C(=O)N[C@@H](CCCNC(=N)N)C(=O)N[C@@H](CCC(N)=O)C(=O)N[C@@H](CCCNC(=N)N)C(=O)N[C@@H](CCCNC(=N)N)C(=O)N[C@@H](CCCNC(=N)N)C(=O)O)[C@@H](C)O)[C@@H](C)O)C(C)C)C(C)C)c3ccc(=[N+](CC)CC)cc-3oc2c1.[Cl-] (RhodamineB-GVLYVGSKTRGSGSSGGDDDWTHLSSYGRKKRRQRRR-OH) |  |  |  |  |  | Drug uptake [1]: Active; Drug uptake [10]: Active; Drug uptake [11]: Active; Activity [12]: Active; Activity [13]: Active; Drug uptake [2]: Active |
| CC[C@H](C)[C@H](NC(=O)[C@H](CCC(=O)O)NC(=O)[C@@H](NC(=O)[C@H](Cc1ccccc1)NC(=O)[C@H](CO)NC(=O)[C@H](CC(=O)O)NC(=O)[C@H](CCC(=O)O)NC(=O)[C@H](CO)NC(=O)[C@H](CO)NC(=O)CNC(=O)[C@H](CO)NC(=O)CNC(=O)[C@H](CO)NC(=O)CNC(=O)[C@H](CCCNC(=N)N)NC(=O)[C@@H](NC(=O)[C@H](CCCCN)NC(=O)[C@H](CO)NC(=O)CNC(=O)[C@@H](NC(=O)[C@H](Cc1ccc(O)cc1)NC(=O)[C@H](CC(C)C)NC(=O)[C@@H](NC(=O)CN)C(C)C)C(C)C)[C@@H](C)O)C(C)C)C(=O)N[C@@H](CCCNC(=N)N)C(=O)N[C@@H](CCSC)C(=O)N[C@@H](Cc1ccc(O)cc1)C(=O)NCC(=O)N[C@@H](CCCNC(=N)N)C(=O)N[C@@H](CCCCN)C(=O)N[C@@H](CCCCN)C(=O)N[C@@H](CCCNC(=N)N)C(=O)N[C@@H](CCCNC(=N)N)C(=O)N[C@@H](CCC(N)=O)C(=O)N[C@@H](CCCNC(=N)N)C(=O)N[C@@H](CCCNC(=N)N)C(=O)N[C@@H](CCCNC(=N)N)C(=O)O (H-GVLYVGSKTRGSGSGSSEDSFVEIRMYGRKKRRQRRR-OH) | inactive | Non-Toxic | Stable | 140 | Dose-Dependent Effect | Kd [4]: 17.2 µM; Kd [6]: 41.6 µM |
| CC(C)C[C@H](NC(=O)[C@H](Cc1c[nH]cn1)NC(=O)[C@@H](NC(=O)[C@H](Cc1c[nH]c2ccccc12)NC(=O)[C@H](CC(=O)O)NC(=O)[C@H](CC(=O)O)NC(=O)[C@H](CC(=O)O)NC(=O)CNC(=O)CNC(=O)[C@H](CO)NC(=O)[C@H](CO)NC(=O)CNC(=O)[C@H](CO)NC(=O)CNC(=O)[C@H](CCCNC(=N)N)NC(=O)[C@@H](NC(=O)[C@H](CCCCN)NC(=O)[C@H](CO)NC(=O)CNC(=O)[C@@H](NC(=O)[C@H](Cc1ccc(O)cc1)NC(=O)[C@H](CC(C)C)NC(=O)[C@@H](NC(=O)CN)C(C)C)C(C)C)[C@@H](C)O)[C@@H](C)O)C(=O)N[C@@H](CO)C(=O)N[C@@H](CO)C(=O)N[C@@H](CCCNC(=N)N)C(=O)N[C@@H](CCCNC(=N)N)C(=O)N[C@@H](CCCNC(=N)N)C(=O)N[C@@H](CCCNC(=N)N)C(=O)N[C@@H](CCCNC(=N)N)C(=O)N[C@@H](CCCNC(=N)N)C(=O)N[C@@H](CCCNC(=N)N)C(=O)O (H-GVLYVGSKTRGSGSSGGDDDWTHLSSRRRRRRR-OH) | inactive | Non-Toxic | Stable | 56.8 | Dose-Dependent Effect |  |
| CC(C)C[C@H](NC(=O)CNC(=O)[C@H](Cc1ccc(O)cc1)NC(=O)[C@@H](N)C(C)C)C(=O)N[C@@H](CCCNC(=N)N)C(=O)NCC(=O)N[C@H](C(=O)N[C@@H](CO)C(=O)N[C@H](C(=O)N[C@@H](CCCCN)C(=O)NCC(=O)N[C@@H](CO)C(=O)NCC(=O)N[C@@H](CO)C(=O)N[C@@H](CO)C(=O)NCC(=O)NCC(=O)N[C@@H](CC(=O)O)C(=O)N[C@@H](CC(=O)O)C(=O)N[C@@H](CC(=O)O)C(=O)N[C@@H](Cc1c[nH]c2ccccc12)C(=O)N[C@H](C(=O)N[C@@H](Cc1c[nH]cn1)C(=O)N[C@@H](CC(C)C)C(=O)N[C@@H](CO)C(=O)N[C@@H](CO)C(=O)N[C@@H](Cc1ccc(O)cc1)C(=O)NCC(=O)N[C@@H](CCCNC(=N)N)C(=O)N[C@@H](CCCCN)C(=O)N[C@@H](CCCCN)C(=O)N[C@@H](CCCNC(=N)N)C(=O)N[C@@H](CCCNC(=N)N)C(=O)N[C@@H](CCC(N)=O)C(=O)N[C@@H](CCCNC(=N)N)C(=O)N[C@@H](CCCNC(=N)N)C(=O)N[C@@H](CCCNC(=N)N)C(=O)O)[C@@H](C)O)[C@@H](C)O)C(C)C (H-VYGLRGVSTKGSGSSGGDDDWTHLSSYGRKKRRQRRR-OH) |  |  |  |  |  | Activity [9]: inactive |
